These results are taken from ChEMBL document CHEMBL6096661, “Synthesis, biological evaluation and mechanism study of a novel indole-pyridine chalcone derivative as antiproliferative agent against tumor cells through dual targeting tubulin and HK2” (Eur J Med Chem, 2025).

SMILES strings stand for the structures. Active and inactive are the calls of the source. No cut-off for these calls is given here.

One experiment concerns LoVo. In words: Antiproliferative activity against human LoVo cells assessed as inhibition of cell growth incubated for 48 hrs by CCK-8 assay. In kind it is functional, cell-based. In general terms: Tetrazolium dyes change colour on reduction, which living cells bring about.
Another experiment concerns HCT-116. Nature of the experiment: Antiproliferative activity against human HCT-116 cells assessed as inhibition of cell growth incubated for 48 hrs by CCK-8 assay. In kind it is functional, cell-based. The conditions noted are these: HCT-116, 48 h.
For another experiment, the system named is SW480. Nature of the experiment: Antiproliferative activity against human SW480 cells assessed as inhibition of cell growth incubated for 48 hrs by CCK-8 assay. In kind it is functional, cell-based. The conditions noted are these: SW480, 48 h.
The test system of a further experiment is MDA-MB-231. In words: Antiproliferative activity against human MDA-MB-231 cells assessed as reduction in cell proliferation incubated for 48 hrs by CCK-8 assay. In kind it is functional, cell-based. The conditions noted are these: MDA-MB-231, 48 h.
For another experiment, the system named is HT-1080. Nature of the experiment: Antiproliferative activity against human HT-1080 cells assessed as inhibition of cell growth incubated for 48 hrs by CCK-8 assay. The conditions noted are these: HT-1080, 48 h. In kind it is functional, cell-based.
The target in experiment [1] is T1, Tubulin (Homo sapiens) (UniProt P68371+Q9H4B7+P0DPH7+P68366+Q13509+Q71U36+P04350+Q3ZCM7+P07437+P68363+Q9BQE3+Q6PEY2+Q13885+Q9BVA1+Q9BUF5). Nature of the experiment: Disruption of microtubule network in human MDA-MB-231 cells assessed as atrophy fiber structure at 1 uM incubated for 24 hrs by DAPI staining based fluorescence microscopic analysis. In kind it is cell-based.

Experiment [2] addresses T1, Tubulin (Homo sapiens). Nature of the experiment: Disruption of microtubule network in human MDA-MB-231 cells assessed as disorganized microtubule network at 1 uM incubated for 24 hrs by DAPI staining based fluorescence microscopic analysis. In kind it is cell-based.
Experiment [3] has as its target T2, Hexokinase-2 (Homo sapiens) (UniProt P52789).
T2 sequence (whole entry): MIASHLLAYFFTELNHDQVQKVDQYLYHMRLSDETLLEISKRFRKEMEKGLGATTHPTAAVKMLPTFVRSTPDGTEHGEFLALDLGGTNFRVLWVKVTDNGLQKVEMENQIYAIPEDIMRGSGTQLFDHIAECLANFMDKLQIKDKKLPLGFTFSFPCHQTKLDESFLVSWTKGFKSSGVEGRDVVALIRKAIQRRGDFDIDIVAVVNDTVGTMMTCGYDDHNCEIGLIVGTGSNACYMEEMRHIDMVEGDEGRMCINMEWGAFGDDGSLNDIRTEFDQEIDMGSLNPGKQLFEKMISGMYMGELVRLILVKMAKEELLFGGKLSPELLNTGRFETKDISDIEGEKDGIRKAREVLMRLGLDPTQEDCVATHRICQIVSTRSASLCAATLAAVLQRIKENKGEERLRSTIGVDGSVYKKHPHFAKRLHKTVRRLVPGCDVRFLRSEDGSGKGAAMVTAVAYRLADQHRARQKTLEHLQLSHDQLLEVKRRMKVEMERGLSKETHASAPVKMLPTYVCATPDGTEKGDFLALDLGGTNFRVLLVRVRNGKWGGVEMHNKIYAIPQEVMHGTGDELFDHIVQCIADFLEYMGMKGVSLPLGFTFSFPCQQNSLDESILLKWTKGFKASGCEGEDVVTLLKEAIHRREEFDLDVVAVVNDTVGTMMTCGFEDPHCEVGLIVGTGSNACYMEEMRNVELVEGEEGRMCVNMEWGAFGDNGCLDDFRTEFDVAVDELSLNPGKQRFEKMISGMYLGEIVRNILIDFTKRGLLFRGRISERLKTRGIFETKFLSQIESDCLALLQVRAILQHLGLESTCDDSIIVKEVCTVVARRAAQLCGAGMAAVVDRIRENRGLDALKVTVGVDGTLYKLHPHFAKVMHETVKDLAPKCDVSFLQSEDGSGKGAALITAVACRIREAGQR
Nature of the experiment: Inhibition of human HK2 transfected in Escherichia coli BL21 (DE) incubated for 10 mins.

For experiment [4], the target named is T1, Tubulin (Homo sapiens). Nature of the experiment: Disruption of microtubule network in human MDA-MB-231 cells assessed as reduced microtubule network at 1 uM incubated for 24 hrs by DAPI staining based fluorescence microscopic analysis. In kind it is cell-based.
Experiment [5] deals with T1, Tubulin (Homo sapiens). In words: Disruption of microtubule network in human MDA-MB-231 cells assessed as point-like fiber structure at 1 uM incubated for 24 hrs by DAPI staining based fluorescence microscopic analysis. In kind it is cell-based.
The target of experiment [6] is T1, Tubulin (Homo sapiens). Nature of the experiment: Disruption of microtubule network in human MDA-MB-231 cells assessed as punctate fiber structure at 1 uM incubated for 24 hrs by DAPI staining based fluorescence microscopic analysis. In kind it is cell-based.
Experiment [7] deals with T2, Hexokinase-2 (Homo sapiens). In words: Binding affinity to human HK2 transfected in Escherichia coli BL21 (DE) by pull down assay.
Experiment [8] concerns the target Tubulin beta (Homo sapiens) (UniProt P68371+Q9H4B7+Q13509+P04350+Q3ZCM7+P07437+Q13885+Q9BVA1+Q9BUF5+A6NNZ2). Nature of the experiment: Binding affinity to beta-tubulin (unknown origin) by pull down assay. In kind it is protein assay.

By IC50 is commonly meant the concentration that gives 50% inhibition.

Consider `O=C(/C=C/c1cn(S(=O)(=O)c2ccc([N+](=O)[O-])cc2)c2ccc(N3CCOCC3)cc12)c1ccncc1`, for which the IC50 amounted to 0.392 µM in the experiment on LoVo; 1.85 µM in the experiment with HCT-116; 1.08 µM with SW480; 1.53 µM with MDA-MB-231; 0.681 µM in the experiment on HT-1080.

On to `Cc1ccc(C(=O)/C=C/c2cn(S(=O)(=O)c3ccc([N+](=O)[O-])cc3)c3ccc(N4CCOCC4)cc23)c(C)n1`, for which the concentration for half-maximal inhibition (IC50) with LoVo was 0.221 µM; in the experiment with HCT-116 it was 1.13 µM; in the experiment with SW480 it was 0.655 µM; in the experiment on MDA-MB-231, 1.07 µM; in the experiment on HT-1080 it was 0.754 µM.

Take `O=C(/C=C/c1cn(S(=O)(=O)c2ccc([N+](=O)[O-])cc2)c2ccc(N3CCOCC3)cc12)c1ncccn1`: the IC50 was determined as 1.3 µM in the experiment with LoVo; 3.46 µM in the experiment with HCT-116; 2.03 µM in the experiment with SW480; 1.81 µM in the experiment on MDA-MB-231; 1.19 µM with HT-1080.

In the case of `O=C(/C=C/c1cn(S(=O)(=O)c2ccc([N+](=O)[O-])cc2)c2cc(N3CCOCC3)ccc12)c1cccnc1`, the IC50 came to 0.792 µM with LoVo; 1.7 µM with HCT-116; 0.718 µM in the experiment on SW480; 0.857 µM in the experiment with MDA-MB-231; 0.773 µM in the experiment with HT-1080.

With `O=C(/C=C/c1cn(S(=O)(=O)c2ccc([N+](=O)[O-])cc2)c2ccc(N3CCCCC3)cc12)c1cccnc1`, the IC50 stood at 0.765 µM with LoVo; 3.19 µM with HCT-116; 0.999 µM in the experiment with SW480; 0.816 µM in the experiment on MDA-MB-231; 0.751 µM in the experiment with HT-1080.

Regarding `COc1ccc(CCc2cc(OC)c(OC)c(OC)c2)cc1O`, the result at Tubulin (Homo sapiens) [1], on Tubulin (Homo sapiens) [2], at Tubulin (Homo sapiens) [4], at Tubulin (Homo sapiens) [5] and on Tubulin (Homo sapiens) [6] was Active. The inhibition result in experiment [3] was “inactive”. Further, the IC50 in the experiment with MDA-MB-231 came to 1.94 µM.

Consider `O=C(/C=C/c1cn(S(=O)(=O)c2ccc([N+](=O)[O-])cc2)c2ccc(N3CCOCC3)cc12)c1cncnc1`, for which the IC50 in the experiment on LoVo came out at 0.679 µM; in the experiment with HCT-116 it was 1.57 µM; in the experiment with SW480, 0.716 µM; in the experiment with MDA-MB-231, 1.59 µM; in the experiment on HT-1080 it was 0.469 µM.

In the case of `COc1cc2c(c(OC)c1OC)-c1ccc(OC)c(=O)cc1[C@@H](NC(C)=O)CC2` [COLCHICINE], the inhibition result in [3] was “inactive”. Also, the IC50 in the experiment with MDA-MB-231 was 2.2 µM.

For the compound `COc1cc(C(=O)/C=C/c2cn(CO)c3ccc(N4CCOCC4)cc23)cc(OC)c1OC`, the IC50 with MDA-MB-231 stood at 12.5 µM.

As for `O=C1N[C@H]2[C@H](CS[C@H]2CCCCC(=O)N2CCN(c3ccc4c(c3)c(/C=C/C(=O)c3cccnc3)cn4S(=O)(=O)c3ccc([N+](=O)[O-])cc3)CC2)N1`, the result in experiment [7] and in experiment [8] was Active.

On to `O=C(/C=C/c1cn(S(=O)(=O)c2ccc([N+](=O)[O-])cc2)c2ccc(N3CCOCC3)cc12)c1ccccn1`, for which the IC50 with LoVo was 0.74 µM; in the experiment with HCT-116 it was 1.04 µM; with SW480 it was 1.08 µM; in the experiment with MDA-MB-231, 0.915 µM; in the experiment with HT-1080, 0.793 µM.

Take `COc1ccc(C(=O)/C=C/c2cn(S(=O)(=O)c3ccc([N+](=O)[O-])cc3)c3ccc(N4CCOCC4)cc23)cn1`: the IC50 in the experiment with MDA-MB-231 worked out at 73.9 µM.

Take `O=C(/C=C/c1cn(S(=O)(=O)c2cccnc2)c2ccc(N3CCOCC3)cc12)c1ccncc1`: in the experiment on MDA-MB-231, the IC50 was found to be 2.89 µM.

As to `O=C(/C=C/c1cn(S(=O)(=O)c2ccc([N+](=O)[O-])cc2)c2ccc(N3CCOCC3)cc12)c1cncc2ccccc12`, the IC50 with MDA-MB-231 was found to be 8.7 µM.

On to `O=C(/C=C/c1cn(C(=O)c2ccccc2)c2ccc(N3CCOCC3)cc12)c1ccncc1`, for which the IC50 with MDA-MB-231 is 7.7 µM.

As to `O=C(/C=C/c1cn(S(=O)(=O)c2ccc3ccccc3c2)c2ccc(N3CCOCC3)cc12)c1ccncc1`, the IC50 with MDA-MB-231 was 12.8 µM.

As to `COc1ccc(S(=O)(=O)n2cc(/C=C/C(=O)c3ccncc3)c3cc(N4CCOCC4)ccc32)cc1`, the IC50 with MDA-MB-231 is 7.58 µM.

Regarding `Cc1[nH]c2ccc(N3CCOCC3)cc2c1/C=C/C(=O)c1cccnc1`, in the experiment with MDA-MB-231, the IC50 is 42.5 µM.

For the compound `Cc1ccc(S(=O)(=O)n2cc(/C=C/C(=O)c3ccncc3)c3cc(N4CCOCC4)ccc32)cc1`, the IC50 in the experiment on MDA-MB-231 was determined as 3.51 µM.

In the case of `c1cc(C2=NNC(c3c[nH]c4ccc(N5CCOCC5)cc34)C2)ccn1` (stereo not drawn), the concentration for half-maximal inhibition (IC50) in the experiment on MDA-MB-231 is 180 µM.

For `O=C(/C=C/c1cn(S(=O)(=O)Cc2ccccc2)c2ccc(N3CCOCC3)cc12)c1ccncc1`, the IC50 in the experiment on MDA-MB-231 came out at 2.5 µM.

Turning to `COc1cc(C(=O)/C=C/c2cn(S(=O)(=O)c3ccc([N+](=O)[O-])cc3)c3ccc(N4CCOCC4)cc23)cc(OC)c1OC`, the IC50 with MDA-MB-231 amounted to 15.6 µM.

Consider `O=C(/C=C/c1cn(S(=O)(=O)c2ccccc2)c2ccc(N3CCOCC3)cc12)c1ccncc1`, for which the IC50 in the experiment on MDA-MB-231 was 7.29 µM.

For the compound `c1cc(C2=NOC(c3c[nH]c4ccc(N5CCOCC5)cc34)C2)ccn1` (stereo not drawn), the IC50 with MDA-MB-231 came out at 200 µM.

Consider `C/C(=C\c1c[nH]c2ccc(N3CCOCC3)cc12)C(=O)c1cccnc1`, for which the IC50 in the experiment with MDA-MB-231 came to 56.6 µM.

Consider `Cc1ccc(S(=O)(=O)n2cc(/C=C/C(=O)c3ccncc3)c3ccccc32)cc1`, for which the IC50 in the experiment on MDA-MB-231 turned out to be 8.49 µM.

Take `O=C(/C=C/c1c[nH]c2ccc(N3CCOCC3)cc12)c1ccncc1`: the IC50 with MDA-MB-231 stood at 39.3 µM.
